{"source": "ChEMBL document CHEMBL1201862", "about": "“PubChem BioAssay data set” (2004)", "key": {"[1]": {"target": "Peroxisome proliferator-activated receptor gamma/Nuclear receptor corepressor 2 (Homo sapiens, UniProt P37231+Q9Y618)", "sequence (P37231 whole entry)": "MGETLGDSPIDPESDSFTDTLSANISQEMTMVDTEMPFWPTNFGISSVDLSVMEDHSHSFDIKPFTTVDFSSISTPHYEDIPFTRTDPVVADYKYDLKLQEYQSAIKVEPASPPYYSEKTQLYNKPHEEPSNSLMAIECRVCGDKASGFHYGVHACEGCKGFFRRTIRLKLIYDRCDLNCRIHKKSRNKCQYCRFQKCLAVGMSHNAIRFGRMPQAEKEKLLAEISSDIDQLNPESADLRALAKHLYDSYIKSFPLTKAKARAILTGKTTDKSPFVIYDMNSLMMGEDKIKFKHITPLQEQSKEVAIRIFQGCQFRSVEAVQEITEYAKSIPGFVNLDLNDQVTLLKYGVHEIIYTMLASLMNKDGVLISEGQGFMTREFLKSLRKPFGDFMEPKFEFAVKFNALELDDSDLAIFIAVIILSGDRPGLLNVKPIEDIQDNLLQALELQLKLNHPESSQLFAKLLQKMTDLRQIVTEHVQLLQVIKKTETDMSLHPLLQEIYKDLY", "sequence (Q9Y618 whole entry)": "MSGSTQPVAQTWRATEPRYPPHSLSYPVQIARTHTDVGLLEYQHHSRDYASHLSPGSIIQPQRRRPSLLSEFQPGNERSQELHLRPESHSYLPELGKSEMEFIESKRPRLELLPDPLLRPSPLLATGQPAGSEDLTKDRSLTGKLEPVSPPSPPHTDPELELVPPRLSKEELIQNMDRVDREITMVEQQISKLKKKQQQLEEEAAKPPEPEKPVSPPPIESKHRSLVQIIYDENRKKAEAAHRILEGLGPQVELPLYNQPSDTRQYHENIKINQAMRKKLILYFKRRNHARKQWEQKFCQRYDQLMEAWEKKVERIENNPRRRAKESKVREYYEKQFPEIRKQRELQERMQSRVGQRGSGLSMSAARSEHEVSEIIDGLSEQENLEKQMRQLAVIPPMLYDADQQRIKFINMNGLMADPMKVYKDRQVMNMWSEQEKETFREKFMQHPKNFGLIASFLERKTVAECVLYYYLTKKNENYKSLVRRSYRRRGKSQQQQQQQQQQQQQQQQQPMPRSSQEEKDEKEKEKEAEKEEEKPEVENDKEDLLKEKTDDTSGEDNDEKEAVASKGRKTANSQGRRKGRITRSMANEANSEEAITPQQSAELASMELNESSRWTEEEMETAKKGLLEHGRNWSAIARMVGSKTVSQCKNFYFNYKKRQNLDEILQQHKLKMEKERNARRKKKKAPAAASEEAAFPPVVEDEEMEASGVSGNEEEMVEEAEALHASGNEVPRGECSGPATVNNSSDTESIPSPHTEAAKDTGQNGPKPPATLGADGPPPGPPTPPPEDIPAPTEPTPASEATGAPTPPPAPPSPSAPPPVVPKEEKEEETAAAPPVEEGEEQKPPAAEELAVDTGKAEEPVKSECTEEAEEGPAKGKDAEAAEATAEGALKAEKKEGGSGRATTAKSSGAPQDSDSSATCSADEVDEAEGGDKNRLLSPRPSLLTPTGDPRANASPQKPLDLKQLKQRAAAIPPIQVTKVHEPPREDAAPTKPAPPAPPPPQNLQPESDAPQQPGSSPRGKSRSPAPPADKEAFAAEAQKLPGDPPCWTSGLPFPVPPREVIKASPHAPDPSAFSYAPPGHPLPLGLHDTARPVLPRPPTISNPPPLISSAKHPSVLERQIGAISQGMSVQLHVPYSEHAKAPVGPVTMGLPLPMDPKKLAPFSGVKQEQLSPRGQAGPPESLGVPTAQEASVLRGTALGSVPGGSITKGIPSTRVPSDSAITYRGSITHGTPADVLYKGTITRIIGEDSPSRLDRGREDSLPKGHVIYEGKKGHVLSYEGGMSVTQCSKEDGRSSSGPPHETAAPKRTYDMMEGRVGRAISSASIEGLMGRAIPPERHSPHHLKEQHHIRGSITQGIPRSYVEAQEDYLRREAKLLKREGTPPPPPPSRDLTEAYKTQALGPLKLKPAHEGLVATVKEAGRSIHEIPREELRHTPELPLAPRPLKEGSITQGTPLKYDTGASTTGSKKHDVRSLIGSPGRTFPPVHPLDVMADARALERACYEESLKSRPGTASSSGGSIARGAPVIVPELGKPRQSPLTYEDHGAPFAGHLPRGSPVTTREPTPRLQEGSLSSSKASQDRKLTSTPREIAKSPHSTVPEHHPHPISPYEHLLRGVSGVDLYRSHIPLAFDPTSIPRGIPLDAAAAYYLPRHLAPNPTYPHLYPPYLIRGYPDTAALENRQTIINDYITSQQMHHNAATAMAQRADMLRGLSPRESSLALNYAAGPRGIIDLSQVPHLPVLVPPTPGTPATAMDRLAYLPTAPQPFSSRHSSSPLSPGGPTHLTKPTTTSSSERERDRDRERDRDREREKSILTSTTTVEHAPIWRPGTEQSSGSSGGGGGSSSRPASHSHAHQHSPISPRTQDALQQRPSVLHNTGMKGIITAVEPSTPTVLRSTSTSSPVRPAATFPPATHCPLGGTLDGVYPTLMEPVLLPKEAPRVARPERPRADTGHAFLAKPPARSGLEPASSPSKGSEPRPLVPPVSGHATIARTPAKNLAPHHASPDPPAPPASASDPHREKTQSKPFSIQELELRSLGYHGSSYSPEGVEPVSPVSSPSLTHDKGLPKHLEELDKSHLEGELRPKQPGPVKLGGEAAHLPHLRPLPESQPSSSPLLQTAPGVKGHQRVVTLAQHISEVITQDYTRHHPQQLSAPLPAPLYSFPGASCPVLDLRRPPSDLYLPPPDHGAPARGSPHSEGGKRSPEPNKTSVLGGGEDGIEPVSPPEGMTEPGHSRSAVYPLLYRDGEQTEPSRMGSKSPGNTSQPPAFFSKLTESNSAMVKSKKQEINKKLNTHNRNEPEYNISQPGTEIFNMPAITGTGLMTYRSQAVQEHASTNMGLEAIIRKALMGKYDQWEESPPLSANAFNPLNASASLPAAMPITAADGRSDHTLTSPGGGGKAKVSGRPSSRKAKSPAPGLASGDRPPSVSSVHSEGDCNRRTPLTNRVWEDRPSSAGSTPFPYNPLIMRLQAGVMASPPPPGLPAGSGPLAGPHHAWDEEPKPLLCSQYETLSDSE", "type": "functional"}, "[2]": {"target": "T1, Type-1 angiotensin II receptor (Homo sapiens, UniProt P30556)", "T1 sequence (P30556 whole entry)": "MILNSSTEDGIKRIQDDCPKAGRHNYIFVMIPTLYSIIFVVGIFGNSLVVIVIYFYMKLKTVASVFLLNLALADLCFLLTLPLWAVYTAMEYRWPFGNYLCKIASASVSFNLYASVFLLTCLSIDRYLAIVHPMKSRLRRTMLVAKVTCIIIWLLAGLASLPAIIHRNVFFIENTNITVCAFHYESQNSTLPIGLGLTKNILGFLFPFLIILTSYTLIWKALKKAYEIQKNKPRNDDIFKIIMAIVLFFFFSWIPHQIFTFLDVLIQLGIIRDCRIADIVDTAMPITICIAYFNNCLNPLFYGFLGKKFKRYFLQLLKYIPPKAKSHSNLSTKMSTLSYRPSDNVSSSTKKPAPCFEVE", "assay": "AT1 receptor antagonists, dose response, selectivity assay for APJ receptor antagonist project, cell-based, uHTS hits (AID 463214);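 further: antagonist potency against angiotensin II stimulated AT1 response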", "type": "functional"}, "[3]": {"target": "T2, Ubiquitin-conjugating enzyme E2 N (Homo sapiens, UniProt P61088)", "T2 sequence (P61088 whole entry)": "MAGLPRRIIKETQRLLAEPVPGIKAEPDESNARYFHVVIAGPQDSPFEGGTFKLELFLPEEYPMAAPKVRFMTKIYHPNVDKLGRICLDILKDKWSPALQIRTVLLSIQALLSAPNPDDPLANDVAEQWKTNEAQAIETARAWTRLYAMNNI", "type": "functional"}, "[4]": {"target": "T3, Protein skinhead-1 (Caenorhabditis elegans, UniProt P34707)", "T3 sequence (P34707 whole entry)": "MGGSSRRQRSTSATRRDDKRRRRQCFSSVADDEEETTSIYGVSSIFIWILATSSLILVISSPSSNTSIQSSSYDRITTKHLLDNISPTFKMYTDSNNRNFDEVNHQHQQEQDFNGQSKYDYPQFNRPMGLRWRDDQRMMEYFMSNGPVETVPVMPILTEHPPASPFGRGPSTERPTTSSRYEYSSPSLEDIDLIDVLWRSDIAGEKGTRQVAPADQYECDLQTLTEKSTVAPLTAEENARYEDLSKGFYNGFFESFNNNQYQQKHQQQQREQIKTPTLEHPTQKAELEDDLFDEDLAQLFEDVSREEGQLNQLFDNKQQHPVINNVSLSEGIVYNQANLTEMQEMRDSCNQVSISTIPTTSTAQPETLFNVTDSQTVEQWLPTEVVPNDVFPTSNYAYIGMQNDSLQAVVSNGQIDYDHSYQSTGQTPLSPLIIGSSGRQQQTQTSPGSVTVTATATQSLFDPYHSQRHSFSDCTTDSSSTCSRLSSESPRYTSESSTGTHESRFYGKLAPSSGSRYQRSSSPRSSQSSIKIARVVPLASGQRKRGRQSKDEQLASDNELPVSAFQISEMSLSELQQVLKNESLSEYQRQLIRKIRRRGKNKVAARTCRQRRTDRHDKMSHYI", "type": "functional"}, "[5]": {"assay": "MDA-MB-231 cell growth inhibition, dose response, cytotoxicity control for RAD54 inhibitor project, CellTiter-Glo luminescence, cherry-pick (AID 651692)", "type": "functional, cell-based"}, "[6]": {"target": "T4, DNA repair and recombination protein RAD54-like (Homo sapiens, UniProt Q92698)", "T4 sequence (Q92698 whole entry)": "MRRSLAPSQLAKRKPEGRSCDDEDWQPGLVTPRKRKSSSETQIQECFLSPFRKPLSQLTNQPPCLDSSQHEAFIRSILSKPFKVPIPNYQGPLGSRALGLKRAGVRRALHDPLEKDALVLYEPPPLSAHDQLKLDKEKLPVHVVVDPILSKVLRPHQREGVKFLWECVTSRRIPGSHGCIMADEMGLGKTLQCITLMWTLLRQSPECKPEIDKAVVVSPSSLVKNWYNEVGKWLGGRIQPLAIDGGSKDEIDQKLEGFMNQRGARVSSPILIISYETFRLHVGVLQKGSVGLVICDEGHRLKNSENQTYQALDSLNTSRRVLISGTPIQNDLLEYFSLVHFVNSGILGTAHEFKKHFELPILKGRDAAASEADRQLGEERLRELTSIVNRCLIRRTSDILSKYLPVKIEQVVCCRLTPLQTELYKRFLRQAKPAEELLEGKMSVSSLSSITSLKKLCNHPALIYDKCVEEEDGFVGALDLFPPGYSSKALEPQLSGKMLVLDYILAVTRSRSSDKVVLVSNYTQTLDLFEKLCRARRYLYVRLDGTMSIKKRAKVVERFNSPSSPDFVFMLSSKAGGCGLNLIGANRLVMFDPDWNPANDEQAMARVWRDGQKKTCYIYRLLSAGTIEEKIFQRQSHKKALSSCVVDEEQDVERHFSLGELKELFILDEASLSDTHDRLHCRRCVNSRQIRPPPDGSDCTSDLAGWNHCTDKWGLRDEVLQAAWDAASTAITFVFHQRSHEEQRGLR", "assay": "inhibitors of human RAD54 branch migration, confirmation, biochemical, fluorescence, cherry-picked samples, dose series (AID 651657)", "type": "functional"}, "[7]": {"target": "Troponin, cardiac muscle (Homo sapiens, UniProt P19429+P45379+P63316)", "assay": "inhibitors of cardiac thin filament calcium sensitivity, dose response, biochemical, fluorescence, cardiac regulated thin filaments, triplicate IC50 (AID 504742)", "type": "protein-complex assay"}, "[8]": {"assay": "Counterscreen for AddAB inhibitors: absorbance-based bacterial cell-based high throughput dose response assay for inhibitors of bacterial viability. [Related pubchem assays (depositor defined):AID435030, AID449728, AID449731, AID488942, AID488955, AID488956]", "type": "functional"}}, "note": "The source made the active and inactive calls."}
{"smiles": "N#Cc1c(NC(=O)c2ccc(Br)o2)n(-c2ccccc2)c2nc3ccccc3nc12", "values": [{"measurement": "IC50", "setting": "[1]", "result": "5.08 µM (active)"}]}
{"smiles": "CCOC(=O)c1c(-c2ccc(-c3ccccc3)cc2)csc1NC(=O)CNCCN(C)C", "values": [{"measurement": "IC50", "setting": "[2]", "result": "9.33 µM (active)"}, {"measurement": "IC50", "setting": "[3]", "result": "10.1 µM (active)"}, {"measurement": "IC50", "setting": "[4]", "result": "12.5 µM (active)"}, {"measurement": "AC50", "setting": "[5]", "result": "18.4 µM (active)"}, {"measurement": "AC50", "setting": "[6]", "result": "68 µM (active)"}]}
{"smiles": "COc1cc(-c2nnc(SCc3cc(=O)oc4cc(O)c(O)cc34)o2)cc(OC)c1OC", "values": [{"measurement": "IC50", "setting": "[7]", "result": "> 2.65 µM (active)"}, {"measurement": "IC50", "setting": "[8]", "result": "> 119 µM (inactive)"}]}
